In ChEMBL document CHEMBL4325829, “Design and Synthesis of Tubulin and Histone Deacetylase Inhibitor Based on iso-Combretastatin A-4” (J Med Chem, 2018):
Active and inactive are the calls of the source. The rule behind the calls is not given here.

Experiments:
Tubulin (Homo sapiens) [1] = target: T1, Tubulin (Homo sapiens) (UniProt P68371+Q9H4B7+P0DPH7+P68366+Q13509+Q71U36+P04350+Q3ZCM7+P07437+P68363+Q9BQE3+Q6PEY2+Q13885+Q9BVA1+Q9BUF5); experiment: Inhibition of tubulin polymerization in human K562 cells assessed as multinucleation at 10 nM after 24 hrs by DAPI-staining based inverted microscopy; assay type: cell-based
[2] = target: T2, Histone deacetylase 8 (Homo sapiens) (UniProt Q9BY41); experiment: Inhibition of HDAC8 in human HT-29 cells assessed as acetylated SMC3 levels at 25 uM after 24 hrs by Western blot analysis relative to control; assay type: cell-based
T2 sequence (whole entry): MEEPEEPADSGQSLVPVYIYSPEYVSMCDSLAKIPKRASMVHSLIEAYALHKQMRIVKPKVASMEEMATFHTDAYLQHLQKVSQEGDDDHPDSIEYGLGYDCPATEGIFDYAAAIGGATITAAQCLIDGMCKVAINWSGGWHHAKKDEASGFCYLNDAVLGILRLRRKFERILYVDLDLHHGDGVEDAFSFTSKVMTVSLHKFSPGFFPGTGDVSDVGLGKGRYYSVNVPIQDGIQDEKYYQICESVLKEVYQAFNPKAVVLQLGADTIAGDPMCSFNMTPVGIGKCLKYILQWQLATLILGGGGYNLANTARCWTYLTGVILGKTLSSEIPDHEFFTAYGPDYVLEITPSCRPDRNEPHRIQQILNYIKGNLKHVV

[3] = target: T3, Protein deacetylase HDAC6 (Homo sapiens) (UniProt Q9UBN7); experiment: Inhibition of HDAC6 in human HT-29 cells assessed as acetylated alpha-tubulin levels at 25 uM after 24 hrs by Western blot analysis relative to control; assay type: cell-based
T3 sequence (whole entry): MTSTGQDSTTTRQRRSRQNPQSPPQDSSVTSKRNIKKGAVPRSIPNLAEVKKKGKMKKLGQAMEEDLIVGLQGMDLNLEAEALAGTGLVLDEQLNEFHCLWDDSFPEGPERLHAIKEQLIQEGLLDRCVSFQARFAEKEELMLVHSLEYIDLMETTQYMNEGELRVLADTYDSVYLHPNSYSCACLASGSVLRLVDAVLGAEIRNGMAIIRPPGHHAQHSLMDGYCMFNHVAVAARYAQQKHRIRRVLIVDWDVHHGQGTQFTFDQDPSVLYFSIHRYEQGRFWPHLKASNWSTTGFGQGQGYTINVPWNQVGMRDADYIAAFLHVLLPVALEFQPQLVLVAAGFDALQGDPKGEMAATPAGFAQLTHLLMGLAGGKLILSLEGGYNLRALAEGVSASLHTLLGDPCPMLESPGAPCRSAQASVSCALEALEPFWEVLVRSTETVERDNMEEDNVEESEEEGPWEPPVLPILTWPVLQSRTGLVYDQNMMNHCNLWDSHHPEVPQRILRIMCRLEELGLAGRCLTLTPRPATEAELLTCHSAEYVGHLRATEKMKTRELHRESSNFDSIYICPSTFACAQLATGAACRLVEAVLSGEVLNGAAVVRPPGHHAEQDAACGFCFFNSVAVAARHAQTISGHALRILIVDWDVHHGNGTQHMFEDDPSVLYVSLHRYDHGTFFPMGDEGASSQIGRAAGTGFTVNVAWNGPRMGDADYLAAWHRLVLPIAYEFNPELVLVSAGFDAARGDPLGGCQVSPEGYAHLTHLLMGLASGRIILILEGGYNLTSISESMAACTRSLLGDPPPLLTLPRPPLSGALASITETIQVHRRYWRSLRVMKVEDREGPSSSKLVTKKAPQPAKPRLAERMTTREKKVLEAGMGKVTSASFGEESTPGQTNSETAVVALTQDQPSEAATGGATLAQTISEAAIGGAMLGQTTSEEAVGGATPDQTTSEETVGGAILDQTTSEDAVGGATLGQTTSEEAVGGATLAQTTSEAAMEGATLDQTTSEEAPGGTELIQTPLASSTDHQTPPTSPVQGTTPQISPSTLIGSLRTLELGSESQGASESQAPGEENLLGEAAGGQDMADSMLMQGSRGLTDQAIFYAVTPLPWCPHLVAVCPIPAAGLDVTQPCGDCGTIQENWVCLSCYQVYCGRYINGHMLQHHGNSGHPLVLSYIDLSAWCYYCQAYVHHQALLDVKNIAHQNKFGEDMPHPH

K562 = experiment: Induction of cell cycle arrest in human K562 cells assessed as accumulation at G2/M phase at 5 to 10 nM after 24 hrs by propidium iodide-staining based flow cytometry; assay type: functional
[4] = target: T4, Histone deacetylase (Homo sapiens) (UniProt Q13547+O15379+Q9UBN7+Q92769+Q9UQL6+Q8WUI4+Q9BY41+Q96DB2+P56524+Q9UKV0+Q969S8); experiment: Inhibition of HDAC in human HT-29 cells assessed as phosphorylated gamma-H2AX levels at 40 nM after 3 days by Western blot analysis relative to control; assay type: cell-based
[5] = Antiproliferative activity against human BL2 cells after 72 hrs by MTS assay; assay type: functional, cell-based; conditions: BL2, 72 h
[6] = target: T2, Histone deacetylase 8 (Homo sapiens); experiment: Inhibition of HDAC8 in human HT-29 cells assessed as acetylated SMC3 levels at 25 uM after 6 hrs by Western blot analysis relative to control; assay type: cell-based
Tubulin (Homo sapiens) [7] = target: T1, Tubulin (Homo sapiens); experiment: Inhibition of tubulin polymerization in human K562 cells assessed as disruption of spindle formation at 1 nM after 24 hrs by DAPI-staining based inverted microscopy; assay type: cell-based
U-87 MG [8] = experiment: Potency index, ratio of IC50 for TSA to IC50 for test compound for antiproliferative activity against human U87 cells after 72 hrs by MTS assay; assay type: functional, U-87MG ATCC
[9] = target: T5, Protein deacetylase HDAC6 (Homo sapiens, UniProt Q9UBN7)
T5 sequence (Q9UBN7 whole entry): T3 sequence (whole entry)
Description: Inhibition of human recombinant HDAC6 after 30 mins using fluorogenic substrate by fluorimetric assay

[10] = target: T4, Histone deacetylase (Homo sapiens); experiment: Inhibition of HDAC in human HT-29 cells assessed as phosphorylated gamma-H2AX levels at 80 nM after 3 days by Western blot analysis relative to control; assay type: cell-based
U-87 MG [11] = experiment: Potency index, ratio of IC50 for isoCA4 to IC50 for test compound for antiproliferative activity against human U87 cells after 72 hrs by MTS assay; assay type: functional, U-87MG ATCC
Homo sapiens = species on record: Homo sapiens; experiment: Induction of cell cycle arrest in human BL2 cells assessed as accumulation at G2/M phase after 24 hrs by propidium iodide-staining based flow cytometry; assay type: functional
K-562R = experiment: Potency index, ratio of IC50 for isoCA4 to IC50 for test compound for antiproliferative activity against human K562R cells after 72 hrs by MTS assay; assay type: functional
[12] = target: T3, Protein deacetylase HDAC6 (Homo sapiens); experiment: Inhibition of HDAC6 in human HT-29 cells assessed as acetylated alpha-tubulin levels at 25 uM after 6 hrs by Western blot analysis relative to control; assay type: cell-based

With `C=C(c1ccc(OC)c(/C=C/C(=O)NO)c1)c1cc(OC)c(OC)c(OC)c1` the Activity (Tubulin (Homo sapiens) [1]) was “Active”, the fold change (FC) [2] was 5.4 and the fold change (FC) [3] was 0.5. The Activity (K562) was “Active”, the fold change (FC) [4] was 3.2 and the IC50 [5] was 0.01 µM. For the same molecule, the fold change (FC) [6] was 3.2, the Activity (Tubulin (Homo sapiens) [7]) was “Active” and the “Ratio IC50” value (U-87 MG [8]) was 650. The IC50 [9] was 15 µM, the fold change (FC) [10] was 14.2 and the “Ratio IC50” value (U-87 MG [11]) was 5. The Activity (Homo sapiens) was “Active”, the “Ratio IC50” value (K-562R) was 2 and the fold change (FC) [12] was 0.4.
